Results taken from patent US9040545B2, “Heterocyclyl pyrazolopyrimidine analogues as selective JAK inhibitors” (Cellzome Limited, priority 2010, dated 2015).

Target: T1, Aurora B (Homo sapiens, UniProt Q96GD4)
T1 construct: cell lysates from Jurkat cells (ATCC TIB-152) used; endogenous in cells; host or cells: Jurkat cells (ATCC TIB-152), treated with pervanadate
Assay: Kinobeads assay, Aurora B
Format: binding
Details: for IC50: lysate of pervanadate-treated Jurkat cells, read-out: Inhibition values (IC50) Aur B
Protocol: The compounds of the present invention as described in the previous examples were tested in a Kinobeads™ assay as described for ZAP-70 (WO-A 2007/137867). Briefly, test compounds (at various concentrations) and the affinity matrix with the immobilized aminopyrido-pyrimidine ligand 24 were added to cell lysate aliquots and allowed to bind to the proteins in the lysate sample. After the incubation time the beads with captured proteins were separated from the lysate. Bound proteins were then eluted and the presence of JAK2 and JAK3 was detected and quantified using specific antibodies in a dot blot procedure and the Odyssey infrared detection system. Dose response curves for individual kinases were generated and IC50 values calculated. Kinobeads™ assays for ZAP-70 (WO-A 2007/137867) and for kinase selectivity profiling (WO-A 2006/134056) have been previously described.
The affinity matrix was washed two times with 15 mL of 1×DP buffer containing 0.2% NP40 (IGEPAL® CA-630, Sigma, #I3021) and then resuspended in 1×DP buffer containing 0.2% NP40 (3% beads slurry).
5×DP buffer 250 mM Tris-HCl pH 7.4, 25% Glycerol, 7.5 mM MgCl2, 750 mM NaCl, 5 mM Na3VO4; filter the 5×DP buffer through a 0.22 μm filter and store in aliquots at −80° C. The 5×DP buffer is diluted with H2O to 1×DP buffer containing 1 mM DTT and 25 mM NaF.
Stock solutions of test compounds were prepared in DMSO. In a 96 well plate 30 μL solution of diluted test compounds at 5 mM in DMSO were prepared. Starting with this solution a 1:3 dilution series (9 steps) was prepared. For control experiments (no test compound) a buffer containing 2% DMSO was used.
Cell lysate (approximately 50 mg protein per plate) was thawed in a water bath at room temperature and then stored on ice. To the thawed cell lysate 1×DP 0.8% NP40 buffer containing protease inhibitors (1 tablet for 25 mL buffer; EDTA-free protease inhibitor cocktail; Roche Diagnostics 1873580) was added in order to reach a final protein concentration of 10 mg/mL total protein. The diluted cell lysate was stored on ice. Mixed Molt4/Ramos lysate was prepared by combining one volume of Molt4 lysate and two volumes of Ramos lysate (ratio 1:2).
To a 96 well filter plate (Multiscreen HTS, BV Filter Plates, Millipore #MSBVN1250) were added per well: 100 μL affinity matrix (3% beads slurry), 3 μL of compound solution, and 50 μL of diluted lysate. Plates were sealed and incubated for 3 hours in a cold room on a plate shaker (Heidolph tiramax 1000) at 750 rpm. Afterwards the plate was washed 3 times with 230 μL washing buffer (1×DP 0.4% NP40). The filter plate was placed on top of a collection 1 plate (Greiner bio-one, PP-microplate 96 well V-shape, 65120) and the beads were then eluted with 20 μL of sample buffer (100 mM Tris, pH 7.4, 4% SDS, 0.00025% bromophenol blue, 20% glycerol, 50 mM DTT). The eluate was frozen quickly at −80° C. and stored at −20° C.
The kinases in the eluates were detected and quantified by spotting on nitrocellulose membranes and using a first antibody directed against the kinase of interest and a fluorescently labelled secondary antibody (anti-rabbit IRDye™ antibody 800 (Licor, #926-32211). The Odyssey Infrared Imaging system from LI-COR Biosciences (Lincoln, Nebr., USA) was operated according to instructions provided by the manufacturer (Schutz-Geschwendener et al, 2004. Quantitative, two-color Western blot detection with infrared fluorescence. Published May 2004 by LI-COR Biosciences, www.licor.com).
After spotting of the eluates the nitrocellulose membrane (BioTrace NT; PALL, #BTNT30R) was first blocked by incubation with Odyssey blocking buffer (LICOR, 927-40000) for 1 hour at room temperature. Blocked membranes were then incubated for 16 hours at the temperature shown in Table 5 with the first antibody diluted in Odyssey blocking buffer (LICOR #927-40000). Afterwards the membrane was washed twice for 10 minutes with PBS buffer containing 0.2% Tween 20 at room temperature. […]

T1 sequence (Q96GD4 whole entry): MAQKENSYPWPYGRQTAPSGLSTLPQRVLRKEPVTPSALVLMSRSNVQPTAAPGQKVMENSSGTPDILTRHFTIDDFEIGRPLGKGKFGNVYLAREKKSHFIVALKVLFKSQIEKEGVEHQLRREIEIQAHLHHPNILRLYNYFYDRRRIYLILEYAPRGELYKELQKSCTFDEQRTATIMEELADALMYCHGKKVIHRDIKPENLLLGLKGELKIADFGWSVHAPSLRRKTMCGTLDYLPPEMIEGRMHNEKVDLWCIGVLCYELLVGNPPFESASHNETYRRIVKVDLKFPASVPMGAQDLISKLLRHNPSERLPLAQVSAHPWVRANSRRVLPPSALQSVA

| SMILES | JAK3/AurB Fold Selectivity | IC50 |
| --- | --- | --- |
| CNC(=O)CCn1cc(Nc2ncc3cnn(Cc4cccc(N5CCOCC5)c4)c3n2)cn1 [Example 24, N-Methyl-3-(4-((1-(3-morpholinobenzyl)-1H-pyrazolo[3,4-d]pyrimidin-6-yl)amino)-1H-pyrazol-1-yl)propanamide] | >50 Fold | 1000 to 10000 nM |
| Cn1cc(Nc2ncc3cnn(Cc4cccc(N5CCS(=O)(=O)CC5)c4)c3n2)cn1 [Example 25, 4-(3-((6-((1-Methyl-1H-pyrazol-4-yl)amino)-1H-pyrazolo[3,4-d]pyrimidin-1-yl)methyl)phenyl)thiomorpholine 1,1-dioxide] | 10-50 Fold | 100 to 1000 nM |
| Cn1cc(Nc2ncc3cnn(Cc4cccc(N5CC6CCC(C5)O6)c4)c3n2)cn1 [Example 26] | 10-50 Fold | 1000 to 10000 nM |
| Cn1cc(Nc2ncc3cnn(Cc4cccc(N5CCOCC5=O)c4)c3n2)cn1 [Example 27, 4-(3-((6-((1-Methyl-1H-pyrazol-4-yl)amino)-1H-pyrazolo[3,4-d]pyrimidin-1-yl)methyl)phenyl)morpholin-3-one] | 10-50 Fold | 100 to 1000 nM |
| CN(C)CCCn1cc(Nc2ncc3cnn(Cc4cccc(N5CCOCC5=O)c4)c3n2)cn1 [Example 28, 4-(3-((6-((1-(3-(Dimethylamino)propyl)-1H-pyrazol-4-yl)amino)-1H-pyrazolo[3,4-d]pyrimidin-1-yl)methyl)phenyl)morpholin-3-one] | >50 Fold | 100 to 1000 nM |
| O=C1COCCN1c1cccc(Cn2ncc3cnc(Nc4cnn(CCO)c4)nc32)c1 [Example 29, 4-(3-((6-((1-(2-Hydroxyethyl)-1H-pyrazol-4-yl)amino)-1H-pyrazolo[3,4-d]pyrimidin-1-yl)methyl)phenyl)morpholin-3-one] | 10-50 Fold | 100 to 1000 nM |
| O=C1CCCN1CCCn1cc(Nc2ncc3cnn(Cc4cccc(N5CCOCC5)c4)c3n2)cn1 [Example 30, 1-(3-(4-((1-(3-Morpholinobenzyl)-1H-pyrazolo[3,4-d]pyrimidin-6-yl)amino)-1H-pyrazol-1-yl)propyl)pyrrolidin-2-one] | >50 Fold | 1000 to 10000 nM |
| CN(C)CC1(Cn2cc(Nc3ncc4cnn(Cc5cccc(N6CCOCC6)c5)c4n3)cn2)COC1 [Example 31, N-(1-((3-((Dimethylamino)methyl)oxetan-3-yl)methyl)-1H-pyrazol-4-yl)-1-(3-morpholinobenzyl)-1H-pyrazolo[3,4-d]pyrimidin-6-amine] | >50 Fold | 1000 to 10000 nM |
| CC(CN(C)C)Cn1cc(Nc2ncc3cnn(Cc4cccc(N5CCOCC5)c4)c3n2)cn1 (centres unmarked) [Example 32, N-(1-(3-(Dimethylamino)-2-methylpropyl)-1H-pyrazol-4-yl)-1-(3-morpholinobenzyl)-1H-pyrazolo[3,4-d]pyrimidin-6-amine] | >50 Fold | 1000 to 10000 nM |
| CN(C)CC(O)Cn1cc(Nc2ncc3cnn(Cc4cccc(N5CCOCC5)c4)c3n2)cn1 (centres unmarked) [Example 33, 1-(Dimethylamino)-3-(4-((1-(3-morpholinobenzyl)-1H-pyrazolo[3,4-d]pyrimidin-6-yl)amino)-1H-pyrazol-1-yl)propan-2-ol] | 10-50 Fold | 1000 to 10000 nM |
| NCCCn1cc(Nc2ncc3cnn(Cc4cccc(N5CCOCC5)c4)c3n2)cn1 [Example 34, N-(1-(3-Aminopropyl)-1H-pyrazol-4-yl)-1-(3-morpholinobenzyl)-1H-pyrazolo[3,4-d]pyrimidin-6-amine] | >50 Fold | 1000 to 10000 nM |
| O=C(CCn1cc(Nc2ncc3cnn(Cc4cccc(N5CCOCC5)c4)c3n2)cn1)NC1CC1 [Example 35, N-Cyclopropyl-3-(4-((1-(3-morpholinobenzyl)-1H-pyrazolo[3,4-d]pyrimidin-6-yl)amino)-1H-pyrazol-1-yl)propanamide] | 10-50 Fold | 1000 to 10000 nM |
| Cn1cc(Nc2ncc3cnn(Cc4cccc(N5CCNCC5=O)c4)c3n2)cn1 [Example 36, 1-(3-((6-((1-Methyl-1H-pyrazol-4-yl)amino)-1H-pyrazolo[3,4-d]pyrimidin-1-yl)methyl)phenyl)piperazin-2-one] | 10-50 Fold | 1000 to 10000 nM |
| Cn1cc(Nc2ncc3cnn(Cc4cc(N5CCOCC5)cc(F)c4F)c3n2)cn1 [Example 37, 1-(2,3-Difluoro-5-morpholinobenzyl)-N-(1-methyl-1H-pyrazol-4-yl)-1H-pyrazolo[3,4-d]pyrimidin-6-amine] | >50 Fold | 1000 to 10000 nM |
| Cn1cc(Nc2ncc3cnn(Cc4c(F)ccc(N5CCOCC5)c4F)c3n2)cn1 [Example 38, 1-(2,6-Difluoro-3-morpholinobenzyl)-N-(1-methyl-1H-pyrazol-4-yl)-1H-pyrazolo[3,4-d]pyrimidin-6-amine] | 10-50 Fold | 100 to 1000 nM |
| OCCn1cc(Nc2ncc3cnn(Cc4cccc(N5CCOCC5)c4F)c3n2)cn1 [Example 39, 2-(4-((1-(2-Fluoro-3-morpholinobenzyl)-1H-pyrazolo[3,4-d]pyrimidin-6-yl)amino)-1H-pyrazol-1-yl)ethanol] | 10-50 Fold | 100 to 1000 nM |
| Cn1cc(Nc2ncc3cnn(Cc4cccc(N5CCOCC5=O)c4F)c3n2)cn1 [Example 40, 4-(2-Fluoro-3-((6-((1-methyl-1H-pyrazol-4-yl)amino)-1H-pyrazolo[3,4-d]pyrimidin-1-yl)methyl)phenyl)morpholin-3-one] | 10-50 Fold | 100 to 1000 nM |
| CNCC1(Cn2cc(Nc3ncc4cnn(Cc5cccc(N6CCOCC6)c5)c4n3)cn2)COC1 [Example 41, N-(1-((3-((Methylamino)methyl)oxetan-3-yl)methyl)-1H-pyrazol-4-yl)-1-(3-morpholinobenzyl)-1H-pyrazolo[3,4-d]pyrimidin-6-amine] | 10-50 Fold | 1000 to 10000 nM |
| Cn1cc(Nc2ncc3cnn(Cc4cccc(N5CC6(COC6)C5)c4)c3n2)cn1 [Example 89, 1-(3-(2-oxa-6-azaspiro[3.3]heptan-6-yl)benzyl)-N-(1-methyl-1H-pyrazol-4-yl)-1H-pyrazolo[3,4-d]pyrimidin-6-amine] | >50 Fold | 1000 to 10000 nM |
| Cn1cc(Nc2ncc3cnn(Cc4cc(F)cc(N5CC6(COC6)C5)c4)c3n2)cn1 [Example 90, 1-(3-fluoro-5-(2-oxa-6-azaspiro[3.3]heptan-6-yl)benzyl)-N-(1-methyl-1H-pyrazol-4-yl)-1H-pyrazolo[3,4-d]pyrimidin-6-amine] | >50 Fold | 1000 to 10000 nM |
| Cn1cc(Nc2ncc3cnn(Cc4cccc(N5CC6(COC6)C5)c4F)c3n2)cn1 [Example 91, 1-(2-fluoro-3-(2-oxa-6-azaspiro[3.3]heptan-6-yl)benzyl)-N-(1-methyl-1H-pyrazol-4-yl)-1H-pyrazolo[3,4-d]pyrimidin-6-amine] | >50 Fold | 1000 to 10000 nM |
| Cn1cc(Nc2ncc3cnn(Cc4cc(F)cc(N5CCNCC5)c4)c3n2)cn1 [Example 92, 1-(3-fluoro-5-(piperazin-1-yl)benzyl)-N-(1-methyl-1H-pyrazol-4-yl)-1H-pyrazolo[3,4-d]pyrimidin-6-amine] | >50 Fold | 100 to 1000 nM |
